Measured values taken from US9957246B2, “Prodrugs of tetrahydrocannabinol, compositions comprising prodrugs of tetrahydrocannabinol and methods of using the same” (Zynerba Pharmaceuticals, Inc., priority 2007, dated 2018).
Where a name gives a salt, the structure may show the parent alone.

Experiments:
[1] = Plasma stability of prodrugs (bioconversion to parent drug); format: in vitro ADME
Experimental: Approximately 1 mg/mL of stock solution of each prodrug was prepared in 100 μL of ethanol and 900 μL of acetonitrile. Next, 10 μL of stock was spiked into 1 mL of plasma and vortexed. The samples were kept sealed in an amber vial and samples were obtained to analyze for bioconversion to parent drug.
An approximated 1 mg/mL stock solution of each prodrug was prepared in 100 μL of ethanol and 900 μL of acetonitrile. Next, 10 μL of stock was spiked into 1 mL of plasma and vortexed. The samples were kept sealed in an amber vial and samples were obtained to analyze for bioconversion to parent drug.
Approximately 1 mg/mL of stock solution of each prodrug was prepared in 100 μL of ethanol and 900 μL of acetonitrile. Ten μL of stock was spiked into 1 mL of plasma and vortexed. The samples were kept sealed in an amber vial and samples were obtained to analyze for bioconversion to parent drug.

[2] = In vitro human skin permeation, flow-through diffusion cells; settings: for Flux enhancement: total THC equivalents
[3] = Table 17, 90:8:2 PG:H2O:IPM donor solution, analyte: THC from prodrug
[4] = Table 17, 90:8:2 PG:H2O:IPM donor solution, analyte: THC or intact prodrug as applied
[5] = Table 17, 90:8:2 PG:H2O:IPM donor solution, total THC equivalents (THC and/or prodrug)
[6] = Table 9, 2.36:1.18:1 pH = 5.5 PG:ethanol:H2O donor solution, analyte: THC or intact prodrug as applied
[7] = Table 7, 2.36:1.18:1 PG:ethanol:H2O donor solution, analyte: THC from prodrug
[8] = Table 7, 2.36:1.18:1 PG:ethanol:H2O donor solution, analyte: THC or intact prodrug as applied
[9] = Table 7, 2.36:1.18:1 PG:ethanol:H2O donor solution, total THC equivalents (THC and/or prodrug)
[10] = Table 8, gel formulation, analyte: THC or intact prodrug as applied
[11] = Table 10, 2.36:1.18:1 pH = 5.5 PG:ethanol:H2O donor solution, analyte: THC or intact prodrug as applied
[12] = Table 18, 90:8:2 PG:H2O:IPM donor solution, analyte: THC or intact prodrug as applied

## CCCCCc1cc(OC(=O)CN(C)C)c2c(c1)OC(C)(C)[C@@H]1CCC(C)=C[C@@H]21 [ALL00118, Δ^9-Tetrahydrocannabinol N,N-dimethylglycyl ester]
[1]; Table 11, 0.1 h
  % Prodrug at time (h): 100%
[1]; Table 11, 1 h
  % Prodrug at time (h): 94%
[1]; Table 11, 22 h
  % Prodrug at time (h): 86%
[1]; Table 11, 24 h
  % Prodrug at time (h): 81%
[1]; Table 11, 42 h
  % Prodrug at time (h): 15%
[1]; Table 15, 0.1 h
  % Prodrug at time (h): 100%
[1]; Table 15, 1 h
  % Prodrug at time (h): 94%
[1]; Table 15, 2 h
  % Prodrug at time (h): 86%
[1]; Table 15, 2.5 h
  % Prodrug at time (h): 81%
[1]; Table 15, 24 h
  % Prodrug at time (h): 15%
[2]; Table 3, 1:1:1 PG:ethanol:H2O donor solution, analyte: THC from prodrug
  24 h skin conc: 7.1 ± 2.4 µmol/g
[2]; Table 3, 1:1:1 PG:ethanol:H2O donor solution, analyte: THC or intact prodrug (PD)
  24 h skin conc: 37.3 ± 23.2 µmol/g
[2]; Table 4, gel formulation, analyte: THC from prodrug
  24 h skin conc: 65.9 ± 24.7 µmol/g
[2]; Table 4, gel formulation, analyte: THC or intact prodrug (PD)
  24 h skin conc: 48.8 ± 30.2 µmol/g
[2]; [3]
  24 h cumulative amt: 5.6 ± 0.5 nmol
  24 h skin conc: 3.7 ± 0.6 µmol/g
  Flux: 0.4 ± 0.0 nmol/cm^2/h
  Lag time: 10.2 ± 0.3 h
[2]; [4]
  24 h cumulative amt: 5.8 ± 0.4 nmol
  24 h skin conc: 9.8 ± 5.2 µmol/g
  Flux: 0.5 ± 0.0 nmol/cm^2/h
  Lag time: 12.8 ± 0.1 h
[2]; Table 17, 90:8:2 PG:H2O:IPM donor solution
  Flux enhancement: 0.90
[2]; [5]
  24 h cumulative amt: 11.4 ± 0.7 nmol
  24 h skin conc: 13.5 ± 5.8 µmol/g
  Flux: 0.9 ± 0.1 nmol/cm^2/h
  Lag time: 11.6 ± 0.2 h

## CCCCCc1cc(OC(=O)C(=O)OCCOCCOCCOCCOC)c2c(c1)OC(C)(C)[C@@H]1CCC(C)=C[C@@H]21 [ALL00122, Δ^9-Tetrahydrocannabinol 3,6,9,12-tetraoxatridecyl oxalate]
[1]; Table 11, 0.1 h
  % Prodrug at time (h): 0%
[1]; Table 11, 1 h
  % Prodrug at time (h): 0%
[1]; Table 11, 22 h
  % Prodrug at time (h): 0%
[1]; Table 11, 24 h
  % Prodrug at time (h): 0%
[1]; Table 11, 42 h
  % Prodrug at time (h): 0%
[2]; [6]
  24 h skin conc: 52.7 ± 3.2 µmol/g

## CCCCCc1cc(OC(=O)CNC=O)c2c(c1)OC(C)(C)[C@@H]1CCC(C)=C[C@@H]21 [ALL00120, Δ^9-Tetrahydrocannabinol N-formylglycyl ester]
[1]; Table 11, 0.1 h
  % Prodrug at time (h): 70%
[1]; Table 11, 1 h
  % Prodrug at time (h): 8%
[1]; Table 11, 22 h
  % Prodrug at time (h): 0%
[1]; Table 11, 24 h
  % Prodrug at time (h): 0%
[1]; Table 11, 42 h
  % Prodrug at time (h): 0%
[2]; [7]
  24 h cumulative amt: 8.8 ± 1.2 nmol
  24 h skin conc: 3.1 ± 1.1 µmol/g
  Flux: 0.6 ± 0.1 nmol/cm^2/h
  Lag time: 9.2 ± 0.8 h
[2]; [8]
  24 h cumulative amt: 30.5 ± 7.0 nmol
  24 h skin conc: 47.1 ± 6.3 µmol/g
  Flux: 2.0 ± 0.5 nmol/cm^2/h
  Lag time: 8.1 ± 1.6 h
[2]; Table 7, 2.36:1.18:1 PG:ethanol:H2O donor solution
  Flux enhancement: 0.87
[2]; [9]
  24 h cumulative amt: 39.3 ± 6.6 nmol
  24 h skin conc: 50.2 ± 7.1 µmol/g
  Flux: 2.7 ± 0.5 nmol/cm^2/h
  Lag time: 8.4 ± 1.3 h
[2]; Table 8, gel formulation, analyte: THC from prodrug
  24 h skin conc: 3.1 ± 2.1 µmol/g
[2]; [10]
  24 h skin conc: 44.8 ± 1.6 µmol/g
[2]; Table 8, gel formulation, total THC equivalents (THC and/or prodrug)
  24 h skin conc: 47.9 ± 2.8 µmol/g

## CCCCCc1cc(OC(=O)CCN(C)C)c2c(c1)OC(C)(C)[C@@H]1CCC(C)=C[C@@H]21 [ALL00153, Δ^9-Tetrahydrocannabinol 3-(dimethylamino)propionate]
[1]; Table 14, 0 h
  % Prodrug at time (h): 98%
[1]; Table 14, 1 h
  % Prodrug at time (h): 72%
[1]; Table 14, 21 h
  % Prodrug at time (h): 48%
[1]; Table 14, 24 h
  % Prodrug at time (h): 41%
[2]; Table 13, gel formulation with 40% aqueous PEG 400 receiver fluid, analyte: THC or intact prodrug as applied
  24 h skin conc: 1.6 ± 0.03 µmol/g
[2]; Table 20, 90:8:2 PG:H2O:IPM donor solution (saturated), analyte: THC or intact prodrug as applied
  24 h skin conc: 0.6 ± 0.1 µmol/g

## CCCCCc1cc(OC(=O)NCCCCN)c2c(c1)OC(C)(C)[C@@H]1CCC(C)=C[C@@H]21 [ALL00124, Δ^9-Tetrahydrocannabinol 4-aminobutyl carbamate]
[1]; Table 11, 0.1 h
  % Prodrug at time (h): 97%
[1]; Table 11, 1 h
  % Prodrug at time (h): 97%
[1]; Table 11, 2 h
  % Prodrug at time (h): 97%
[1]; Table 11, 3 h
  % Prodrug at time (h): 96%
[1]; Table 11, 5 h
  % Prodrug at time (h): 94%
[1]; Table 11, 24 h
  % Prodrug at time (h): 71%
[2]; [6]
  24 h cumulative amt: 138.7 ± 101.2 nmol
  24 h skin conc: 17.3 ± 0.4 µmol/g
  Flux: 9.4 ± 5.9 nmol/cm^2/h
  Lag time: 9.1 ± 2.0 h
[2]; [11]
  24 h cumulative amt: 245.2 ± 54.1 nmol
  24 h skin conc: 4.3 ± 0.3 µmol/g
  Flux: 16.1 ± 0.1 nmol/cm^2/h
  Lag time: 1.4 ± 0.0 h

## CCCCCc1cc(OC(=O)OC[C@@H](O)CO)c2c(c1)OC(C)(C)[C@@H]1CCC(C)=C[C@@H]21 [ALL00138, Δ^9-Tetrahydrocannabinol (S)-2,3-dihydroxypropyl carbonate]
[1]; Table 15, 0.1 h
  % Prodrug at time (h): 30%
[1]; Table 15, 0.5 h
  % Prodrug at time (h): 0%
[2]; [12]
  24 h cumulative amt: 18.2 ± 1.4 nmol
  24 h skin conc: 7.2 ± 4.8 µmol/g
  Flux: 1.0 ± 0.0 nmol/cm^2/h
  Lag time: 5.9 ± 1.4 h

## CCCCCc1cc(OC(=O)OCCOCCOCCOCCOC)c2c(c1)OC(C)(C)[C@@H]1CCC(C)=C[C@@H]21 [ALL00119, Δ^9-Tetrahydrocannabinol 3,6,9,12-tetraoxatridecyl carbonate]
[1]; Table 11, 0.1 h
  % Prodrug at time (h): 100%
[1]; Table 11, 1 h
  % Prodrug at time (h): 82%
[1]; Table 11, 22 h
  % Prodrug at time (h): 64%
[1]; Table 11, 24 h
  % Prodrug at time (h): 51%
[1]; Table 11, 42 h
  % Prodrug at time (h): 0%
[2]; [6]
  24 h skin conc: 13.6 ± 7.5 µmol/g
[2]; Table 9, 2.36:1.18:1 pH = 5.5 PG:ethanol:H2O donor solution, total THC equivalents (THC and/or prodrug)
  24 h skin conc: 13.6 ± 7.5 µmol/g

## CCCCCc1cc(OC(=O)CCC(=O)O)c2c(c1)OC(C)(C)[C@@H]1CCC(C)=C[C@@H]21 [ALL00123, Δ^9-Tetrahydrocannabinol hemisuccinate]
[1]; Table 11, 0.1 h
  % Prodrug at time (h): 0%
[1]; Table 11, 1 h
  % Prodrug at time (h): 0%
[1]; Table 11, 22 h
  % Prodrug at time (h): 0%
[1]; Table 11, 24 h
  % Prodrug at time (h): 0%
[1]; Table 11, 42 h
  % Prodrug at time (h): 0%
[2]; [10]
  24 h cumulative amt: 2.3 ± 1.5 nmol
  24 h skin conc: 110.4 ± 22.2 µmol/g
  Flux: 0.15 ± 0.07 nmol/cm^2/h
